Data reported in patent publication US20140113899A1 (priority 2011, published 2014).
Where two headings read alike, the source gives them in different places.

What was measured:
Microdocum nivale [1] = assay: Test Example 9: in vitro antimicrobial activity test with benodanil and Compound I-1
Procedure: (§1) In the test, a flora disk of 4 mm in diameter was cut from an area around a colony of Microdocum nivale pre-cultured in advance in a pre-culture PDA medium, and Microdocum nivale was inoculated on the PDA medium where chemical agents were mixed. After culturing at 25° C. for 3 days, a diameter of a grown colony was measured. Then, a mycelial growth inhibition ratio was calculated by comparing the diameter of this grown colony with a diameter of a colony on a medium without the chemical agents. As in Test Example 1, a cooperative effect was judged by use of Colby's formula.

Microdocum nivale [2] = assay: Test Example 10: in vitro antimicrobial activity test with penthiopyrad and Compound I-1
Procedure: as §1
Then, a mycelial growth inhibition ratio against Microdocum nivale was obtained.

Rhizoctonia solani = assay: Test Example 18: in vitro antimicrobial activity test with chlorothalonil and Compound I-1; type: cell-based
Botrytis cinere = assay: Test Example 11: in vitro antimicrobial activity test with azoxystrobin and Compound I-1; type: cell-based
Excerpt: Then, a mycelial growth inhibition ratio against Botrytis cinere was obtained.

[3] = test system: Pseudocercoporella herpotrichoides; assay: Test Example 16: in vitro antimicrobial activity test with thiophanate-methyl and Compound I-1; type: cell-based
Gaeumannomyces graminis = assay: Test Example 13: in vitro antimicrobial activity test with prochloraz and Compound I-1; type: cell-based
Excerpt: Then, a mycelial growth inhibition ratio against Gaeumannomyces graminis was obtained.

Glomerella cingulata = assay: Test Example 4: in vitro antimicrobial activity test with bixafen and Compound I-1; type: cell-based
Puccinia recondida = assay: Test Example 7: controlling effect of isopyrazam and Compound I-1 on wheat brown rust; type: in vivo
Procedure: Isopyrazam and Compound I-1 were mixed at a given ratio and a test for a cooperative effect against wheat brown rust was carried out. First, a chemical suspension containing isopyrazam and Compound I-1 were prepared and sprayed on a pot of a wheat plant at two leaves stage so that thus sprayed isopyrazam and Compound I-1 became a predetermined dosage. Then, after the pot was left for approximately one hour at a room temperature so that the plant body dries, Puccinia recondida was inoculated by spraying an urediniospore suspended solution (1×10^5/ml) of Puccinia recondida. Then, the pot was kept in a wet chamber at 20° C. for 15 hours, and after 14 days, onset of disease was examined by a disease-onset area index. Here, the test was conducted by use of one plot pot.

Fusarium graminearum [4] = type: in vivo
Microdocum nivale [5] = assay: Test Example 14: in vitro antimicrobial activity test with prothioconazole and Compound I-1
Pythium aphanidermatum = assay: Test Example 19: in vitro antimicrobial activity test with metalaxyl and Compound I-1; type: cell-based
Alternaria alternata = assay: Test Example 15: in vitro antimicrobial activity test with fenpropimorph and Compound I-1; type: cell-based
Excerpt: Then, a mycelial growth inhibition ratio against Alternaria alternata was obtained.

Fusarium graminearum [6] = type: in vivo; details: wettable powder containing only the compound, 500 mg/L, sprayed at 1,000 L/ha; fourth to seventh days after inoculation
Fusarium graminearum [7] = type: in vivo; remark: listed apart in the source
Fusarium graminearum [8] = type: in vivo; remark: listed apart in the source
Fusarium graminearum [9] = type: in vivo; details: Fluopyram 20 g/ha alone
Fusarium graminearum [10] = type: in vivo; details: Furametpyr 20 g/ha alone
Pyricularia oryzae [11] = type: cell-based
Pyricularia oryzae [12] = type: cell-based; remark: listed apart in the source
[13] = compound 25 g/ha alone (Metconazole 0 g/ha)
[14] = compound 50 g/ha alone (Metconazole 0 g/ha)
[15] = compound 75 g/ha alone (Metconazole 0 g/ha)

C[C@@]1(CCl)CC[C@H](Cc2ccc(Cl)cc2)[C@@]1(O)Cn1cncn1 (racemic) [Compound I-1, (1RS,2SR,5SR)-5-(4-chlorobenzyl)-2-chloromethyl-2-methyl-1-(1H-1,2,4-triazole-1-ylmethyl)cyclopentanol]
Mycelial Growth Inhibition Ratio % Measured Value (Microdocum nivale [1]; Compound I-1 0.078 ppm alone): 8%
Mycelial Growth Inhibition Ratio % Measured Value (Microdocum nivale [2]; Compound I-1 0.005 ppm alone): 5%
Mycelial Growth Inhibition Ratio % Measured Value (Microdocum nivale [2]; Compound I-1 0.02 ppm alone): 10%
Mycelial Growth Inhibition Ratio % Measured Value (Microdocum nivale [2]; Compound I-1 0.078 ppm alone): 12%
Mycelial Growth Inhibition Ratio % Measured Value (Rhizoctonia solani; Compound I-1 1.25 ppm alone): 68%
Mycelial Growth Inhibition Ratio % Measured Value (Botrytis cinere; Compound I-1 0.02 ppm alone): 25%
Mycelial Growth Inhibition Ratio % Measured Value (Botrytis cinere; Compound I-1 0.078 ppm alone): 47%
Mycelial Growth Inhibition Ratio % Measured Value ([3]; Compound I-1 0.078 ppm alone): 3%
Mycelial Growth Inhibition Ratio % Measured Value ([3]; Compound I-1 0.313 ppm alone): 42%
Mycelial Growth Inhibition Ratio % Measured Value (Gaeumannomyces graminis; Compound I-1 0.02 ppm alone): 0%
Mycelial Growth Inhibition Ratio % Measured Value (Gaeumannomyces graminis; Compound I-1 0.078 ppm alone): 17%
Mycelial Growth Inhibition Ratio % Measured Value (Gaeumannomyces graminis; Compound I-1 0.313 ppm alone): 74%
Mycelial Growth Inhibition Ratio % Measured Value (Glomerella cingulata; Compound (I) 0.005 ppm alone): 13%
Mycelial Growth Inhibition Ratio % Measured Value (Glomerella cingulata; Compound (I) 0.02 ppm alone): 23%
Actual Protective Value (Puccinia recondida; Compound I-1 0.1875 g/ha alone): 13
Actual Protective Value (Puccinia recondida; Compound I-1 0.375 g/ha alone): 37
Actual Protective Value (Puccinia recondida; Compound I-1 0.75 g/ha alone): 67
Actual Protective Value (Puccinia recondida; Compound I-1 1.5 g/ha alone): 80
Actual Protective Value (Puccinia recondida; Compound I-1 3 g/ha alone): 93
Actual Protective Value (Fusarium graminearum [4]; Compound (I) 4 g/ha alone): 9.4
Actual Protective Value (Fusarium graminearum [4]; Compound (I) 8 g/ha alone): 12.9
Mycelial Growth Inhibition Ratio % Measured Value (Microdocum nivale [5]; Compound I-1 0.078 ppm alone): 8%
Mycelial Growth Inhibition Ratio % Measured Value (Microdocum nivale [5]; Compound I-1 0.313 ppm alone): 34%
Mycelial Growth Inhibition Ratio % Measured Value (Pythium aphanidermatum; Compound I-1 0.005 ppm alone): 9%
Mycelial Growth Inhibition Ratio % Measured Value (Alternaria alternata; Compound I-1 0.02 ppm alone): 3%
Mycelial Growth Inhibition Ratio % Measured Value (Alternaria alternata; Compound I-1 0.078 ppm alone): 24%
Mycelial Growth Inhibition Ratio % Measured Value (Alternaria alternata; Compound I-1 0.313 ppm alone): 50%
protective value (Fusarium graminearum [6]): ≥ 90%

C[C@]1(CCl)CC[C@@H](Cc2ccc(F)cc2)[C@]1(O)Cn1cncn1 (racemic) [Compound I-11, (1RS,2SR,5 SR)-2-chloromethyl-5-(4-fluorobenzyl)-2-methyl-1-(1H-1,2,4-triazole-1-ylmethyl)cyclopentanol]
Actual Protective Value (Fusarium graminearum [7]; [13]): 25.6
Actual Protective Value (Fusarium graminearum [7]; [14]): 56.7
Actual Protective Value (Fusarium graminearum [7]; [15]): 66.7

C[C@]1(CCl)CC[C@@H](Cc2ccccc2)[C@]1(O)Cn1cncn1 (racemic) [Compound I-12, (1RS,2SR,5SR)-2-chloromethyl-5-benzyl-2-methyl-1-(1H-1,2,4-triazole-1-ylmethyl)cyclopentanol]
Actual Protective Value (Fusarium graminearum [7]; [13]): 40.0
Actual Protective Value (Fusarium graminearum [7]; [14]): 65.6
Actual Protective Value (Fusarium graminearum [7]; [15]): 75.6

CO/C=C(/C(=O)OC)c1ccccc1Oc1cc(Oc2ccccc2C#N)ncn1 [Azoxystrobin]
Mycelial Growth Inhibition Ratio % Measured Value (Botrytis cinere; Azoxystrobin 0.1575 ppm alone): 41%
Mycelial Growth Inhibition Ratio % Measured Value (Botrytis cinere; Azoxystrobin 0.63 ppm alone): 60%
Mycelial Growth Inhibition Ratio % Measured Value (Botrytis cinere; Azoxystrobin 2.5 ppm alone): 69%
Mycelial Growth Inhibition Ratio % Measured Value (Botrytis cinere; Azoxystrobin 10 ppm alone): 71%

O=C(Nc1ccccc1)c1ccccc1I [Benodanil]
Mycelial Growth Inhibition Ratio % Measured Value (Microdocum nivale [1]; Benodanil 0.0393 ppm alone): 0%
Mycelial Growth Inhibition Ratio % Measured Value (Microdocum nivale [1]; Benodanil 0.1575 ppm alone): 0%
Mycelial Growth Inhibition Ratio % Measured Value (Microdocum nivale [1]; Benodanil 0.63 ppm alone): 0%
Mycelial Growth Inhibition Ratio % Measured Value (Microdocum nivale [1]; Benodanil 2.5 ppm alone): 0%
Mycelial Growth Inhibition Ratio % Measured Value (Microdocum nivale [1]; Benodanil 10 ppm alone): 4%

Cn1cc(C(=O)Nc2ccc(F)cc2-c2ccc(Cl)c(Cl)c2)c(C(F)F)n1 [Bixafen]
Mycelial Growth Inhibition Ratio % Measured Value (Glomerella cingulata; Bixafen 0.0393 ppm alone): 5%
Mycelial Growth Inhibition Ratio % Measured Value (Glomerella cingulata; Bixafen 0.1575 ppm alone): 7%
Mycelial Growth Inhibition Ratio % Measured Value (Glomerella cingulata; Bixafen 0.63 ppm alone): 7%
Mycelial Growth Inhibition Ratio % Measured Value (Glomerella cingulata; Bixafen 2.5 ppm alone): 16%
Mycelial Growth Inhibition Ratio % Measured Value (Glomerella cingulata; Bixafen 10 ppm alone): 38%

O=C(Nc1ccccc1-c1ccc(Cl)cc1)c1cccnc1Cl [Boscalid]
Actual Protective Value (Fusarium graminearum [8]; Boscalid 20 g/ha alone): 0
Actual Protective Value (Fusarium graminearum [8]; Boscalid 40 g/ha alone): 4
Actual Protective Value (Fusarium graminearum [8]; Boscalid 60 g/ha alone): 15
Actual Protective Value (Fusarium graminearum [8]; Boscalid 80 g/ha alone): 8

N#Cc1c(Cl)c(Cl)c(Cl)c(C#N)c1Cl [Chlorothalonil]
Mycelial Growth Inhibition Ratio % Measured Value (Rhizoctonia solani; Chlorothalonil 0.0393 ppm alone): 0%
Mycelial Growth Inhibition Ratio % Measured Value (Rhizoctonia solani; Chlorothalonil 0.1575 ppm alone): 15%
Mycelial Growth Inhibition Ratio % Measured Value (Rhizoctonia solani; Chlorothalonil 0.63 ppm alone): 74%
Mycelial Growth Inhibition Ratio % Measured Value (Rhizoctonia solani; Chlorothalonil 2.5 ppm alone): 84%
Mycelial Growth Inhibition Ratio % Measured Value (Rhizoctonia solani; Chlorothalonil 10 ppm alone): 98%

OC(CC1CC1(Br)Br)(Cn1cncn1)C1(Cl)CC1 (stereo not drawn) [Compound XVII-2, 2-(1-chlorocyclopropyl)-1-(2,2-dibromocyclopropyl)-3-(1H-1,2,4-triazole-1-yl)propane-2-ol]
protective value (Fusarium graminearum [6]): ≥ 90%

CC(Cc1ccc(C(C)(C)C)cc1)CN1C[C@@H](C)O[C@@H](C)C1 (stereo partly drawn) [Fenpropimorph]
Mycelial Growth Inhibition Ratio % Measured Value (Alternaria alternata; Fenpropimorph 0.0393 ppm alone): 0%
Mycelial Growth Inhibition Ratio % Measured Value (Alternaria alternata; Fenpropimorph 0.1575 ppm alone): 0%

O=C(NCCc1ncc(C(F)(F)F)cc1Cl)c1ccccc1C(F)(F)F [Fluopyram]
Actual Protective Value (Fusarium graminearum [9]): 0

Cc1nn(C)c(Cl)c1C(=O)Nc1cccc2c1C(C)OC2(C)C (stereo not drawn) [Furametpyr]
Actual Protective Value (Fusarium graminearum [10]): 0

CC(C)C1CCC(Cc2ccc(Cl)cc2)C1(O)Cn1cncn1 (stereo not drawn) [Ipconazole]
Mycelial Growth Inhibition Ratio % Measured Value (Pyricularia oryzae [11]; Ipconazole 0.0393 ppm alone): 11%
Mycelial Growth Inhibition Ratio % Measured Value (Pyricularia oryzae [11]; Ipconazole 0.1575 ppm alone): 33%
Mycelial Growth Inhibition Ratio % Measured Value (Pyricularia oryzae [11]; Ipconazole 0.63 ppm alone): 72%

CC(C)C1C2CCC1c1c(NC(=O)c3cn(C)nc3C(F)F)cccc12 (stereo not drawn) [Isopyrazam]
Actual Protective Value (Puccinia recondida; Isopyrazam 3.125 g/ha alone): 57

COCC(=O)N(c1c(C)cccc1C)C(C)C(=O)OC (stereo not drawn) [Metalaxyl]
Mycelial Growth Inhibition Ratio % Measured Value (Pythium aphanidermatum; Metalaxyl 0.0393 ppm alone): 3%
Mycelial Growth Inhibition Ratio % Measured Value (Pythium aphanidermatum; Metalaxyl 0.1575 ppm alone): 7%
Mycelial Growth Inhibition Ratio % Measured Value (Pythium aphanidermatum; Metalaxyl 0.63 ppm alone): 12%
Mycelial Growth Inhibition Ratio % Measured Value (Pythium aphanidermatum; Metalaxyl 2.5 ppm alone): 14%
Mycelial Growth Inhibition Ratio % Measured Value (Pythium aphanidermatum; Metalaxyl 10 ppm alone): 25%

CC1(C)CCC(Cc2ccc(Cl)cc2)C1(O)Cn1cncn1 (stereo not drawn) [Metconazole]
Actual Protective Value (Fusarium graminearum [7]; Metconazole 10 g/ha alone): 13.9
Actual Protective Value (Fusarium graminearum [7]; Metconazole 20 g/ha alone): 26.7

CC(C)CC(C)c1sccc1NC(=O)c1cn(C)nc1C(F)(F)F (stereo not drawn) [Penthiopyrad]
Mycelial Growth Inhibition Ratio % Measured Value (Microdocum nivale [2]; Penthiopyrad 0.0393 ppm alone): 2%
Mycelial Growth Inhibition Ratio % Measured Value (Microdocum nivale [2]; Penthiopyrad 0.1575 ppm alone): 2%
Mycelial Growth Inhibition Ratio % Measured Value (Microdocum nivale [2]; Penthiopyrad 0.63 ppm alone): 2%
Mycelial Growth Inhibition Ratio % Measured Value (Microdocum nivale [2]; Penthiopyrad 2.5 ppm alone): 7%
Mycelial Growth Inhibition Ratio % Measured Value (Microdocum nivale [2]; Penthiopyrad 10 ppm alone): 36%

CCCN(CCOc1c(Cl)cc(Cl)cc1Cl)C(=O)n1ccnc1 [Prochloraz]
Mycelial Growth Inhibition Ratio % Measured Value (Gaeumannomyces graminis; Prochloraz 0.0393 ppm alone): 12%
Mycelial Growth Inhibition Ratio % Measured Value (Gaeumannomyces graminis; Prochloraz 0.1575 ppm alone): 69%
Mycelial Growth Inhibition Ratio % Measured Value (Gaeumannomyces graminis; Prochloraz 0.63 ppm alone): 98%

OC(Cc1ccccc1Cl)(Cn1nc[nH]c1=S)C1(Cl)CC1 (stereo not drawn) [Prothioconazole]
Mycelial Growth Inhibition Ratio % Measured Value (Microdocum nivale [5]; Prothioconazole 0.1575 ppm alone): 11%
Mycelial Growth Inhibition Ratio % Measured Value (Microdocum nivale [5]; Prothioconazole 0.63 ppm alone): 34%
Mycelial Growth Inhibition Ratio % Measured Value (Microdocum nivale [5]; Prothioconazole 2.5 ppm alone): 76%

COC(=O)N(OC)c1ccccc1COc1ccn(-c2ccc(Cl)cc2)n1 [Pyraclostrobin]
Actual Protective Value (Fusarium graminearum [4]; Pyraclostrobin 10 g/ha alone): 10.6
Actual Protective Value (Fusarium graminearum [4]; Pyraclostrobin 20 g/ha alone): 23.5
Actual Protective Value (Fusarium graminearum [4]; Pyraclostrobin 30 g/ha alone): 36.5

CC(C)(C)C(O)(CCc1ccc(Cl)cc1)Cn1cncn1 (stereo not drawn) [Tebuconazole]
Mycelial Growth Inhibition Ratio % Measured Value (Pyricularia oryzae [12]; Tebuconazole 0.0393 ppm alone): 3%
Mycelial Growth Inhibition Ratio % Measured Value (Pyricularia oryzae [12]; Tebuconazole 0.1575 ppm alone): 12%
Mycelial Growth Inhibition Ratio % Measured Value (Pyricularia oryzae [12]; Tebuconazole 0.63 ppm alone): 50%

COC(=O)NC(=S)Nc1ccccc1NC(=S)NC(=O)OC [Thiophanate-methyl]
Mycelial Growth Inhibition Ratio % Measured Value ([3]; Thiophanate-methyl 0.0393 ppm alone): 0%
Mycelial Growth Inhibition Ratio % Measured Value ([3]; Thiophanate-methyl 0.1575 ppm alone): 0%
Mycelial Growth Inhibition Ratio % Measured Value ([3]; Thiophanate-methyl 0.63 ppm alone): 52%
